Experimental data taken from patent US9487510B2, “Substituted heterocyclic acetamides as kappa opioid receptor (KOR) agonists” (Dr. Reddy's Laboratories Ltd., priority 2012, dated 2016).
Counter-ions that a name gives are not always drawn.

Target: human KOR receptor (Homo sapiens, UniProt P41145)
Assay: IP-One HTRF assay, potency of KOR agonists, dose-response in transiently transfected COS-7 cells
Type: cell-based

human KOR receptor, sequence (P41145 whole entry): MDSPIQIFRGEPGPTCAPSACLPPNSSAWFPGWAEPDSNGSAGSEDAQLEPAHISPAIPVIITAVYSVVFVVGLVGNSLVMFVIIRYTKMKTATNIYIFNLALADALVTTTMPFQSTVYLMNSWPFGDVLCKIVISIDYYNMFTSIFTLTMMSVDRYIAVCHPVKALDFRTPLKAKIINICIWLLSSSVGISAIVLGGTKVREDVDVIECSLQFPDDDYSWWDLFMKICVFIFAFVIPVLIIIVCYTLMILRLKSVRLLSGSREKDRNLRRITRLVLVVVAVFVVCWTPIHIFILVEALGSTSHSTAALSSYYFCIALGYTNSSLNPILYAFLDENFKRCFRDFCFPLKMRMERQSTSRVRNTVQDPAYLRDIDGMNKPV

SMILES | EC50 [nM]
CN(C(=O)Cc1ccc2sc(=O)[nH]c2c1)[C@H](CN1CC[C@H](O)C1)c1cccc(-c2ncon2)c1 [Example 189, N-((S)-1-(3-(1,2,4-oxadiazol-3-yl)phenyl)-2-((S)-3-hydroxypyrrolidin-1-yl)ethyl)-N-methyl-2-(2-oxo-2,3-dihydrobenzo[d]thiazol-5-yl)acetamide 2,2,2-trifluoroacetate] | ≤ 50
CN(C(=O)Cc1ccc2sc(=O)[nH]c2c1)[C@H](CN1CC[C@H](O)C1)c1cccc(OCC(=O)O)c1 [Example 166, 2-(3-((S)-2-((S)-3-hydroxypyrrolidin-1-yl)-1-(N-methyl-2-(2-oxo-2,3-dihydrobenzo [d]thiazol-5-yl)acetamido)ethyl)phenoxy)acetic acid] | ≤ 50
CN(C(=O)Cc1ccc2c(c1)NS(=O)(=O)C2)[C@H](CN1CC[C@H](O)C1)c1cccc(C#N)c1 [Example 203, N-((S)-1-(3-cyanophenyl)-2-((S)-3-hydroxypyrrolidin-1-yl)ethyl)-2-(2,2-dioxido-1,3-dihydrobenzo[c]isothiazol-6-yl)-N-methylacetamide] | ≤ 50
CN(C(=O)Cc1ccc2c(c1)NC(=O)C2)[C@H](CN1CC[C@H](F)C1)c1cccc(C(N)=O)c1 [Example 165, 3-((S)-2-((S)-3-fluoropyrrolidin-1-yl)-1-(N-methyl-2-(2-oxoindolin-6-yl)acetamido)ethyl)benzamide] | 101 to 1000
CC(C)(C)OC(=O)Cn1c(=O)oc2ccc(CC(=O)N[C@H](CN3CCCC3)c3ccccc3)cc21 [Example 82, (S)-tert-butyl-2-(2-oxo-5-(2-oxo-2-(1-phenyl-2-(pyrrolidin-1-yl)ethylamino)ethyl)benzo[d]oxazol-3(2H)-yl)acetate] | ≤ 50
CN(C(=O)Cc1ccc2ncc(=O)[nH]c2c1)[C@H](CN1CC[C@H](O)C1)c1cccc(C(N)=O)c1 [Example 164, 3-((S)-2-((S)-3-hydroxypyrrolidin-1-yl)-1-(N-methyl-2-(3-oxo-3,4-dihydroquinoxalin-6-yl)acetamido)ethyl)benzamide] | ≤ 50
CC(C)(C)OC(=O)COc1cccc(C(CN2CC[C@H](O)C2)NC(=O)Cc2ccc3oc(=O)[nH]c3c2)c1 (mixture of isomers) [Example 74, (S)-tert-butyl 2-(3-(2-(3-hydroxypyrrolidin-1-yl)-1-(2-(2-oxo-2,3-dihydrobenzo[d]oxazol-5-yl)acetamido)ethyl)phenoxy)acetate] | ≤ 50
O=C(O)COc1cccc(C(CN2CC[C@H](O)C2)NC(=O)Cc2ccc3oc(=O)[nH]c3c2)c1 (mixture of isomers) [Example 101, (S)-2-(3-(2-(3-hydroxypyrrolidin-1-yl)-1-(2-(2-oxo-2,3-dihydrobenzo[d]oxazol-5-yl)acetamido)ethyl)phenoxy)acetic acid] | ≤ 50
CN(C(=O)Cc1ccc2c(c1)NC(=O)C2)[C@H](CN1CC[C@H](O)C1)c1cccc(OCc2nn[nH]n2)c1 [Example 112, N-((S)-1-(3-((2H-tetrazol-5-yl)methoxy)phenyl)-2-((S)-3-hydroxypyrrolidin-1-yl)ethyl)-N-methyl-2-(2-oxoindolin-6-yl)acetamide] | 51 to 100
CCC#Cc1cccc([C@@H](CN2CC[C@H](O)C2)N(C)C(=O)Cc2ccc3ncc(=O)[nH]c3c2)c1 [Example 206, N-((S)-1-(3-(but-1-yn-1-yl)phenyl)-2-((S)-3-hydroxypyrrolidin-1-yl)ethyl)-N-methyl-2-(3-oxo-3,4-dihydroquinoxalin-6-yl)acetamide] | ≤ 50
CN(C(=O)Cc1ccc2c(c1)NC(=O)C2)[C@H](CN1CC[C@H](F)C1)c1cccc(OCC(=O)NS(C)(=O)=O)c1 [Example 162, N-((S)-2-((S)-3-fluoropyrrolidin-1-yl)-1-(3-(2-(methylsulfonamido)-2-oxoethoxy)phenyl)ethyl)-N-methyl-2-(2-oxoindolin-6-yl)acetamide] | ≤ 50
CN(C(=O)Cc1ccc2oc(=O)n(Cc3ccccc3)c2c1)[C@H](CN1CCCC1)c1cccc(OCc2ccccc2)c1 [Example 64, (S)-2-(3-benzyl-2-oxo-2,3-dihydrobenzo[d]oxazol-5-yl)-N-(1-(3-(benzyloxy)phenyl)-2-(pyrrolidin-1-yl)ethyl)-N-methylacetamide] | ≤ 50
O=C(Cc1ccc2oc(=O)[nH]c2c1)NC(CN1CCCC1)c1cnn(Cc2ccccc2)c1 (centres unmarked) [Example 62, N-(1-(1-benzyl-1H-pyrazol-4-yl)-2-(pyrrolidin-1-yl)ethyl)-2-(2-oxo-2,3-dihydrobenzo[d]oxazol-5-yl)acetamide] | ≤ 50
CN(C(=O)Cc1ccc2c(c1)NS(=O)(=O)C2)[C@H](CN1CC[C@H](O)C1)c1cc(F)cc(C#N)c1 [Example 199, N-((S)-1-(3-cyano-5-fluorophenyl)-2-((S)-3-hydroxypyrrolidin-1-yl)ethyl)-2-(2,2-dioxido-1,3-dihydrobenzo[c]isothiazol-6-yl)-N-methylacetamide] | ≤ 50
CN(C(=O)Cc1ccc2c(c1)S(=O)(=O)NC2=O)[C@H](CN1CC[C@H](O)C1)c1ccccc1 [Example 8, 2-(1,1-dioxido-3-oxo-2,3-dihydrobenzo[d]isothiazol-6-yl)-N-((S)-2-((S)-3-hydroxypyrrolidin-1-yl)-1-phenylethyl)-N-methylacetamide] | ≥ 1000
CN(C(=O)Cc1ccc2c(c1)NC(=O)C2)[C@H](CN1CC[C@H](O)C1)c1cc(F)cc(-c2nccs2)c1 [Example 43, N-((S)-1-(3-fluoro-5-(thiazol-2-yl)phenyl)-2-((S)-3-hydroxypyrrolidin-1-yl)ethyl)-N-methyl-2-(2-oxoindolin-6-yl)acetamide] | ≤ 50
CN(C(=O)Cc1ccc2sc(=O)[nH]c2c1)[C@H](CN1CC[C@H](O)C1)c1cccc(-c2ncc[nH]2)c1 [Example 191, N-((S)-1-(3-(1H-imidazol-2-yl)phenyl)-2-((S)-3-hydroxypyrrolidin-1-yl)ethyl)-N-methyl-2-(2-oxo-2,3-dihydrobenzo[d]thiazol-5-yl)acetamide] | ≤ 50
O=C(O)COc1cccc([C@@H](CN2CCCC2)NC(=O)Cc2ccc3oc(=O)[nH]c3c2)c1 [Example 85, (S)-2-(3-(1-(2-(2-oxo-2,3-dihydrobenzo[d]oxazol-5-yl)acetamido)-2-(pyrrolidin-1-yl)ethyl)phenoxy)acetic acid hydrochloride] | ≤ 50
CN(C(=O)Cc1ccc2c(c1)NC(=O)CS2)[C@H](CN1CC[C@H](O)C1)c1cccc(OCC(N)=O)c1 [Example 175, N-((S)-1-(3-(2-amino-2-oxoethoxy)phenyl)-2-((S)-3-hydroxypyrrolidin-1-yl)ethyl)-N-methyl-2-(3-oxo-3,4-dihydro-2H-benzo[b][1,4]thiazin-6-yl)acetamide] | ≤ 50
CN(C(=O)Cc1ccc2ncc(=O)[nH]c2c1)[C@H](CN1CC[C@H](O)C1)c1cccc(C(=O)NCC(F)(F)F)c1 [Example 196, 3-((S)-2-((S)-3-hydroxypyrrolidin-1-yl)-1-(N-methyl-2-(3-oxo-3,4-dihydroquinoxalin-6-yl)acetamido)ethyl)-N-(2,2,2-trifluoroethyl)benzamide] | ≤ 50
CCN(CC)C(=O)COc1cccc([C@@H](CN2CC[C@H](O)C2)N(C)C(=O)Cc2ccc3sc(=O)[nH]c3c2)c1 [Example 42, N-((S)-1-(3-(2-(diethylamino)-2-oxoethoxy)phenyl)-2-((S)-3-hydroxypyrrolidin-1-yl)ethyl)-N-methyl-2-(2-oxo-2,3-dihydrobenzo[d]thiazol-5-yl)acetamide] | ≤ 50
CN(C(=O)Cc1ccc2c(c1)NC(=O)C2)[C@H](CN1CC[C@H](F)C1)c1cccc(C#N)c1 [Example 25, N-((S)-1-(3-cyanophenyl)-2-((S)-3-fluoropyrrolidin-1-yl)ethyl)-N-methyl-2-(2-oxoindolin-6-yl)acetamide] | ≤ 50
CN(C(=O)Cc1ccc2c(c1)NC(=O)CO2)[C@H](CN1CC[C@H](O)C1)c1cccc(OCC(=O)O)c1 [Example 167, 2-(3-((S)-2-((S)-3-hydroxypyrrolidin-1-yl)-1-(N-methyl-2-(3-oxo-3,4-dihydro-2H-benzo[b][1,4]oxazin-6-yl)acetamido)ethyl)phenoxy)acetic acid] | ≤ 50
O=C1COc2ccc(CC(=O)N[C@H](CN3CCCC3)c3ccccc3)cc2N1 [Example 114, (S)-2-(3-oxo-3,4-dihydro-2H-benzo[b][1,4]oxazin-6-yl)-N-(1-phenyl-2-(pyrrolidin-1-yl)ethyl)acetamide] | ≤ 50
CN(C(=O)Cc1ccc2c(c1)N(Cc1ccccc1)S(=O)(=O)C2)[C@H](CN1CC[C@H](O)C1)c1ccccc1 [Example 135, 2-(1-benzyl-2,2-dioxido-1,3-dihydrobenzo[c]isothiazol-6-yl)-N-((S)-2-((S)-3-hydroxypyrrolidin-1-yl)-1-phenylethyl)-N-methylacetamide] | ≤ 50
CCc1nc(-c2cccc([C@@H](CN3CC[C@H](O)C3)N(C)C(=O)Cc3ccc4c(c3)NC(=O)C4)c2)no1 [Example 214, N-((S)-1-(3-(5-ethyl-1,2,4-oxadiazol-3-yl)phenyl)-2-((S)-3-hydroxypyrrolidin-1-yl)ethyl)-N-methyl-2-(2-oxoindolin-6-yl)acetamide] | ≤ 50
CN(C)C(=O)c1cccc([C@@H](CN2CC[C@H](O)C2)N(C)C(=O)Cc2ccc3ncc(=O)[nH]c3c2)c1 [Example 211, 3-((S)-2-((S)-3-hydroxypyrrolidin-1-yl)-1-(N-methyl-2-(3-oxo-3,4-dihydroquinoxalin-6-yl)acetamido)ethyl)-N,N-dimethylbenzamide] | ≤ 50
CN(C(=O)Cc1ccc2c(c1)NC(=O)CO2)[C@H](CN1CC[C@H](O)C1)c1cccc(OCC(N)=O)c1 [Example 173, N-((S)-1-(3-(2-amino-2-oxoethoxy)phenyl)-2-((S)-3-hydroxypyrrolidin-1-yl)ethyl)-N-methyl-2-(3-oxo-3,4-dihydro-2H-benzo[b][1,4]oxazin-6-yl)acetamide] | ≤ 50
CN(C(=O)Cc1ccc2c(c1)NS(=O)(=O)C2)[C@H](CN1CC[C@H](O)C1)c1cccc(-c2ncon2)c1 [Example 186, N-((S)-1-(3-(1,2,4-oxadiazol-3-yl)phenyl)-2-((S)-3-hydroxypyrrolidin-1-yl)ethyl)-2-(2,2-dioxido-1,3-dihydrobenzo[c]isothiazol-6-yl)-N-methylacetamide] | ≤ 50
